The fold induction is the ratio of treated to control signal.

Data set [1] relates to E14.5 mouse embryonic brain cells. Briefly: Neurosphere formation of FACS-sorted E14.5 embryonic brain cells. The class given is cell-based. To be noted: 6 days culture, >50 μm diameter, 10,000 cells/well. From the text: For the counting of the number of neurosphere, we selected 6 days-cultured neurospheres having larger than 50 μm of diameter. The whole neurospheres in a well were counted to reduce random counting error using EVOS microscope (Advanced Microscopy Group).
E14.5 embryos were obtained from C57BL/6 pregnant mice. Cerebral cortices were removed and triturated into single-cell suspension by digestion of dissected tissues with StemPro® Accutase® (Invitrogen) and filtered through 40 μm nylon mesh. The brain cells were collected by centrifugation with 400×g for 3 min and resuspended in neurosphere growth medium [DMEM/F12 supplemented with 2% B27 (without vitamin A), bFGF (10 ng/ml), EGF (20 ng/ml), 1× anti-anti]. The cells were stained for 1 hour with 1 μM of CDg13 in neurosphere growth medium. After collecting cells by centrifuge as described above, the cells were resuspended to BSA-free DMEM (phenol red free) and added propidium iodide (PI) at a concentration of 1 μg/ml to distinguish dead cells. FACS sorting was performed using the MoFlo XDP cell sorter (Beckman Coulter). Cells were sorted by pre-gating with FSC/SSC properties to exclude small debris having FSC^low/SSC^low. To isolate CDg13 stained cell population, we used a 488 nm laser excitation and a 529/28 BP filter to collect emitted light. Dead cells stained by PI were detected with a 488 nm excitation and a 620/29 BP emission. […]

For data set [2], the system named is neurospheres from E14.5 mouse embryonic brain. Briefly: Neuronal differentiation of primary neurospheres (Tuj1/GFAP immunostaining). It is filed as cell-based. To be noted: neurospheres from sorted cells, 150 per group. The method, then: All animal experiments were approved by the Biomedical Research Council Singapore, Institutional Animal Care and Use Committee (IACUC). E14.5 embryos were obtained from C57BL/6 pregnant mice. Cerebral cortices were removed and triturated into single-cell suspension by digestion of dissected tissues with StemPro® Accutase® (Invitrogen) and filtered through 40 μm nylon mesh. Dissociated cells were seeded at a density of 1×10^3 cells/cm^2 in neurosphere growth medium [DMEM/F12 supplemented with 2% B27 (without vitamin A), bFGF (10 ng/ml), EGF (20 ng/ml), 1× anti-anti]. All the cell culture components were from Invitrogen. Passaging of neurosphere was conducted through single cell dissociation of neurospheres as described above. […]
More than a hundred of differentiated neurospheres were fixed in paraformaldehyde (4%, w/v) for 15 min, permeabilized in Triton X-100 (0.1% v/v), and blocked with BSA (3% w/v) for 1 hour. […] The existence of clear Tuj1 positive cells inside a differentiated neurosphere were counted as neuron-contained neurospheres. Neuronal clumps were counted if more than 10 of nuclei of neuronal cells are packaged each other. Neurite outgrowth of Tuj1 positive cells were measured using neurite outgrowth module parameter of MetaXpress ([…]) with maximum width of 1 μm. The phases with high neurite outgrowth were selected and counted at least 300 cells.

Another data set relates to human KB3-1 cells. Briefly: MTS viability assay on KB3-1 cells. To be noted: 48 h. It is filed as cell-based.
For another data set, the target named is ABCB1 (Homo sapiens, UniProt P08183). Briefly: in vitro.
Data set [3] concerns NS-5 cells. The data set can be described thus: Subcellular co-localization with organelle trackers by confocal microscopy. It is filed as cell-based, mouse. As for the experimental part: Hoechst 33342 (2 μM) and CDg13 (1 μM) were added to the cell culture medium. After incubation for 1 hour, culture media were changed with BSA-free medium to maintain CDg13 staining. The organelle specific chemical probes, ER-Tracker™ Red, BODIPY® TR Ceramide, LysoTracker® Red DND-99 and MitoTracker® Deep Red FM, were used to stain endoplasmic reticulum, Golgi apparatus, lysosome and mitochondria, respectively according to manufacturer's instructions (Molecular Probe). The subcellular staining was observed under confocal microscope and their co-localizations were analyzed by Pearson's Collection and Mander's overlap using NIS-Elements software of Eclipse Ti microscope (Nikon).
NS-5 cells stained with CDg13, Hoechst33342 and/or organelle markers were observed using A1R+si confocal microscope (Nikon) within 1 hour after staining. The live NS-5 cells were loaded into a pre-heated plate with supplemented 5% CO2. Fast scanning less than 250 ms with 4 times scan were used to prevent phototoxicity onto the cells.

The test system of data set [4] is NS-5 cells. The data set can be described thus: DOFLA screening: live cell staining of MEF, mESC, NS5 and differentiated NS5. To be noted: 1 μM, 1 hour, NS5, D-NS5. It is filed as cell-based, mouse. As for the experimental part:
The screening platform was composed of mouse embryonic fibroblast (MEF), mouse embryonic stem cells (mESC), NS5 and differentiated NS5 (D-NS5) (FIG. 4). A derivate from the CF library was selected having eleven saturated carbon chain (CF-C11), named as compound of designation green 13 (CDg13, λabs/λem=520/553 nm; quantum yield=0.82) (FIG. 4A, Table 3). […] To characterize the subcellular target of the CDg13 probe, the image of CDg13 using confocal microscopy was analyzed. The CDg13 stained organelle was clearly merged with the staining of a molecular probe that targeted endoplasmic reticulum (ER), but not with Golgi, lysosome, and mitochondria targeted probes (FIG. 4C). The value of co-localization with ER was appeared as 0.97 on both of Pearson's Collection and Mander's overlap, whereas other organelle markers were below 0.83.
Screening of fluorescent probes of DOFL was conducted using high-throughput imaging analysis as previously described^7.
Hoechst 33342 (2 μM) and CDg13 (1 μM) were added to the cell culture medium. After incubation for 1 hour, culture media were changed with BSA-free medium to maintain CDg13 staining. […] The subcellular staining was observed under confocal microscope and their co-localizations were analyzed by Pearson's Collection and Mander's overlap using NIS-Elements software of Eclipse Ti microscope (Nikon).

Sequence of ABCB1 (P08183 whole entry): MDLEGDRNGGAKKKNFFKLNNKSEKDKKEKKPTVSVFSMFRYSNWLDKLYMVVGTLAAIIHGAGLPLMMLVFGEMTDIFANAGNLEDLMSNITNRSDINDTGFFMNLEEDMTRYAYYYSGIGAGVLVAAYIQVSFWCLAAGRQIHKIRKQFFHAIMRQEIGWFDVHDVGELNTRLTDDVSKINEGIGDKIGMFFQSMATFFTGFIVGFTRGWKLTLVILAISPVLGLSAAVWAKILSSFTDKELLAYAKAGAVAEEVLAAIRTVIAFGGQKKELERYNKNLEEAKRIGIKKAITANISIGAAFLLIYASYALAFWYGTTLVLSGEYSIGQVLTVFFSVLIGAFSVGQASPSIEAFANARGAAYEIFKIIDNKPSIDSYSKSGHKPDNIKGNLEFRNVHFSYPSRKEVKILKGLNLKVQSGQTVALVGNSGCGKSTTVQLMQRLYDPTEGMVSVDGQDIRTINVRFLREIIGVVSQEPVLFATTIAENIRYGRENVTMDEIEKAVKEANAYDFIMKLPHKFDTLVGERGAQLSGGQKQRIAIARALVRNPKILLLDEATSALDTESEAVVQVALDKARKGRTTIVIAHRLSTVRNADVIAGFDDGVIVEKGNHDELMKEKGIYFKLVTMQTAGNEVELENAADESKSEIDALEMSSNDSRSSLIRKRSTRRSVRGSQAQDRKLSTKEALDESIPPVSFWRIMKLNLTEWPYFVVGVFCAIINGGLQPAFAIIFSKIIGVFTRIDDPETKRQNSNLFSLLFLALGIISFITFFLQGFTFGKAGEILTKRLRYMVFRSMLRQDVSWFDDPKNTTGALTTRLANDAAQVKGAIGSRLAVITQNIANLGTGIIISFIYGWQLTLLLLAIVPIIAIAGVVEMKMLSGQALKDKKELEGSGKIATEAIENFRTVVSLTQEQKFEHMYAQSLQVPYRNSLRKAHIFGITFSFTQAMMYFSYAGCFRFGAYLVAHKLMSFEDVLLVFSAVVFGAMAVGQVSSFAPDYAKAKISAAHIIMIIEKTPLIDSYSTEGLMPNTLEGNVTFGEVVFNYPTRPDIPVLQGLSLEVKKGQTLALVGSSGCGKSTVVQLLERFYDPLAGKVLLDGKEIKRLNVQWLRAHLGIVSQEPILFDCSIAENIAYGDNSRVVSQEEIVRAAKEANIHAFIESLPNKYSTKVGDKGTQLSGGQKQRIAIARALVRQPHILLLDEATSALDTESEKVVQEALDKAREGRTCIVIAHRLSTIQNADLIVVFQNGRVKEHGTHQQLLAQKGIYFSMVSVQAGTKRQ

Regarding `CCCCCCCCCN(CCCCCCCCC)C(=O)c1ccc(-c2c3cc(Cl)c(=O)cc-3oc3cc(O)c(Cl)cc23)cc1` [CDg13], in data set [1], the “number of neurospheres of CDg13^bright cells compared to CD133^high cells” value is given as 1.5 fold and the “number of neurospheres of CDg13^bright cells compared to unsorted brain cells” value was found to be 5.9 fold. The “neurospheres differentiated to neuron in the whole spheres” value in data set [2] was 95.3%. The toxicity entry with human KB3-1 cells (1 to 10 μM) was “No toxicity was observed”. In the data set on human KB3-1 cells, the “concentration at which cells started dying” value came to 50 µM. For the same compound, on ABCB1, the fold induction at 1 h, 10 µM was 1.5. For the same compound, in the data set with NS-5 cells [3] (Golgi, lysosome, mitochondria trackers), the “co-localization with other organelle markers” value is listed as “below 0.83”. In the data set with NS-5 cells [3] (live NS-5 cells, ER tracker), the “co-localization with ER (Pearson's Collection and Mander's overlap)” value stood at 0.97. For the same compound, in the data set with NS-5 cells [4], the “cell type staining selectivity” value is listed as “preferentially stains undifferentiated NS-5 cells, a NSPC line, but not other cell types”.

These data come from patent publication US20180024136A1, “Development of ABCG2-Sensitive Fluorescent Probe For Isolation of ABCG2low Neural Stem/Progenitor Cells” (National University of Singapore, priority 2015, published 2018).
